This test deals with Staphylococcus aureus. Nature of the test: Antibacterial activity against Staphylococcus aureus at 1 mg/ml. The format is functional, organism-based.

The source made the active and inactive calls. No cut-off for these calls is given here.

Consider `C[C@H](CO)[C@H]1CC[C@]2(C)C[C@@H]3[C@H](CO)C[C@@H](O)[C@H]3[C@@](C)(O)C/C=C/12`, for which the outcome was inactive.
